The results in this text go back to patent publication US20240247080A1, “GLP1/GIP/NPY2 RECEPTOR TRIPLE AGONISTS” (Boehringer Ingelheim International GmbH, priority 2022, published 2024).

Where two headings read alike, the source gives them in different places. Starred links: 1 amine or outer side, 2 acyl side, 3 side chain; linkers in the order of their positions; H or OH if unused. Non-standard residues stand in square brackets, D forms with d. Groups on a side chain read outwards from the residue. No end group written: not given here. *: point of attachment. C20 diacid = O=C(O)CCCCCCCCCCCCCCCCCCC(=O)*; C18 diacid = O=C(O)CCCCCCCCCCCCCCCCC(=O)*; γGlu = O=C(O)[C@H](CCC(=O)[*:2])N[*:1]; εLys = N[C@@H](CCCCN[*:1])C(=O)[*:2]; AEEA = NCCOCCOCC(=O)O; Aib = CC(C)(N)C(=O)O

One may read the MRT as a mean duration of stay, worked out from the concentration-time curve.

One data set concerns the target T1, hGLP1R (Homo sapiens, UniProt P43220).
T1 construct: expressed in transfected cells; host or cells: HEK-293 cells carrying a CRE-luciferase reporter gene
Nature of the data set: hGLP1R CreLuc reporter gene assay in 0.5% and 100% plasma. The conditions noted are these: CreLuc reporter gene assay. Type of data set: cell-based. In outline:
(§1)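 HEK-293 cells co-expressing GLP-1 or NPY2 receptor and CHO cells expressing GIP receptor, each carrying a CRE-driven luciferase reporter, were stimulated with peptides for 4 hours at 37 °C. Luminescence was read after Bright-Glo addition. EC50 came from 8-point, four-decade curves fitted by variable-slope non-linear regression.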
(Reporter assays use an easily measured gene product as a stand-in for the process of interest.)

A further data set deals with T2, hGIPR (Homo sapiens, UniProt P48546).
T2 construct: expressed in transfected cells; host or cells: CHO cells carrying a CRE-luciferase reporter gene
T2 sequence (P48546 22-466): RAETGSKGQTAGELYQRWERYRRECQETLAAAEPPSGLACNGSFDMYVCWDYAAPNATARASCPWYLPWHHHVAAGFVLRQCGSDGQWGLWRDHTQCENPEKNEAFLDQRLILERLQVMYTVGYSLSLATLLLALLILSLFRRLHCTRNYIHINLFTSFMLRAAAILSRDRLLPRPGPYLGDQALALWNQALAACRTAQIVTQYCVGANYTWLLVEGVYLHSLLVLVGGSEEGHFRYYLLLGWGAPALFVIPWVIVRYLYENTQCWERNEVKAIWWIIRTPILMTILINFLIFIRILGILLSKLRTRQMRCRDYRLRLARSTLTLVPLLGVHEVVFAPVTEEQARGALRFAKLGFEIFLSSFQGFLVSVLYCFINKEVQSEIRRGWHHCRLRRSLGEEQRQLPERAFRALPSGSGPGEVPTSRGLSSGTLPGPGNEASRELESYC
In words: hGIPR CreLuc reporter gene assay in 0.5% and 100% plasma. Type of data set: cell-based. As to conditions: CreLuc reporter gene assay. The method in brief: as §1

A further data set concerns the target T3, hNPY2R (Homo sapiens, UniProt P49146).
T3 construct: expressed in transfected cells; host or cells: HEK-293 cells carrying a CRE-luciferase reporter gene
T3 sequence (P49146 1-381): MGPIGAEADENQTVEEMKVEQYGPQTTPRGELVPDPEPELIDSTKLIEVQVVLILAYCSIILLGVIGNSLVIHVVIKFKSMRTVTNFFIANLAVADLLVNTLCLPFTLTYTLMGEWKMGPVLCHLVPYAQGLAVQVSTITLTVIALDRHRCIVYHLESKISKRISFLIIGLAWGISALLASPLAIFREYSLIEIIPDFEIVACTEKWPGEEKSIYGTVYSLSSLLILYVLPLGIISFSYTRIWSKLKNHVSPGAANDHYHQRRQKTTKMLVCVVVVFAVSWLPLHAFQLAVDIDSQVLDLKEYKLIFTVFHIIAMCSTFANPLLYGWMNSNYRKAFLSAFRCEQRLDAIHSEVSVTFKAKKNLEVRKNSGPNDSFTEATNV
Nature of the data set: hNPY2R CreLuc reporter gene assay in 0.5% and 100% plasma. Type of data set: cell-based. The conditions noted are these: CreLuc reporter gene assay, 0.5% human plasma; read-out: hNPY2R 0.5% hP. In outline: as §1

Data set [1] is described as follows: Mouse PK after intravenous application. The format is in vivo. The conditions noted are these: mean residence time, intravenous 30-60 nmol/kg, male NMRI mice. In outline: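 Male NMRI mice (30–40 g) received 30-60 nmol/kg peptide by tail-vein injection, dissolved in 50 mM phosphate buffer (pH 7.4)/3.5% mannitol. Saphenous blood was sampled up to 56 hours post-dose and EDTA plasma analysed by LC-MS. PK parameters came from non-compartmental analysis.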

A short description of data set [2]: Effect on acute food intake in normal NMRI mice. The format is in vivo. The conditions noted are these: 30 nmol/kg subcutaneously once, normalized to vehicle group, male NMRI mice. The procedure: Example 4: Effect on Acute Food Intake in Normal NMRI Mice
Male NMRI mice were obtained from Janvier (Janvier Labs, France) or from Charles River (Charles River Research Models & Services Germany GmbH) at the age of 3 weeks. The animals get a microchip (Datamars, Slim Microchip T-SL) for individual identification after delivery. They were housed with 4 mice per cage under a 12/12 dark-light cycle, light off at 3 p.m. Room temperature was controlled to 21° C. +/−1° C. and humidity 60%+/−20%. Mice had ad libitum access to regular rodent chow (KLIBA Nafag 3040 or Altromin 1324, Brogaarden, Denmark) and tap water.
Latest transfer into the HM2-System of MBRose, Denmark (real-time monitoring system of food- and water intake) of the animals 5 days before study start, to allow acclimatization to experimental conditions. As the animals were uniquely identified with the microchips, each individual animal was identified by its own microchip upon entry and exit from the food channel via antennae. Randomization of the mice for each study group (n=8; age earliest 6 weeks old) was based on food intake (middle of last three days 24 h-Intervall) and bodyweight directly before start of the study. A vehicle treated (50 mM phosphate buffer pH7.4 with 3.5% Mannitol) group was included in each experiment. To have the same nutrition standard for each animal the food access was locked eight hours before dark phase. One hour before night, the animals were once treated subcutaneously with the test peptide. Food intake was reported hourly for a period of 24 h.

[3] abbreviates: 0.5% human plasma, read-out: hGLP1R 0.5% hP.
Setting [4] is: 0.5% human plasma, read-out: hGIPR 0.5% hP.
Where [5] appears, read: 100% human plasma, read-out: hGIPR 100% hP.

T1 sequence (P43220 24-463): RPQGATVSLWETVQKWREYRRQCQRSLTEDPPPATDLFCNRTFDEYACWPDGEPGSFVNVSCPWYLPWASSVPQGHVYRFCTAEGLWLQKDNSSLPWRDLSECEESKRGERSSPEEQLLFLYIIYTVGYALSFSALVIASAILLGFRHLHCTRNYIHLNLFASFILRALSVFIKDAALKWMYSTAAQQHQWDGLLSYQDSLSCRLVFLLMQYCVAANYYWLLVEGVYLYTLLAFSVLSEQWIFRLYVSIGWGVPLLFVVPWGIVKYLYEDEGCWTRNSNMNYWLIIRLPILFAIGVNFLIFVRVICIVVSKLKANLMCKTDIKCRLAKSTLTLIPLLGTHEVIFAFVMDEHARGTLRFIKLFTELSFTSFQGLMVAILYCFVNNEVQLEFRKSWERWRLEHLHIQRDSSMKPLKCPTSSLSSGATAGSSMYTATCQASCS

For “H-Y[Aib]EGTFTSDYSI[Aib]LEKQAQ[Aib]EFVEWLIK([AEEA-AEEA-γGlu-γGlu-γGlu-γGlu-C18 diacid])GGPSSGASLRHYYNWLTRQRY-NH2 [Compound 145, Y-Aib-E-G-T-F-T-S-D-Y-S-I-Aib-L-E-K-Q-A-Q-Aib-E-F-V-E-W-L-I-K(1,3)-GGPSSGASLRHYYNWLTRQRY-NH2.C18DA-gGlu-gGlu-gGlu-gGlu-OEG-OEG(1,2)]”, the EC50 on hGLP1R (setting [3]) was 0.31 nM; at hGIPR (setting [4]), 0.28 nM; at hGIPR (setting [5]), 1.23 nM; at hNPY2R, 11.9 nM. In addition, the MRT in data set [1] (plasma) was 8 h. The “Acute Food Intake 24 h 30 nmol/kg [% CTL]” value in data set [2] is given as 43 % CTL.
On to “H-Y[Aib]EGTFTSDYSI[Aib]LEKQAQ[Aib]EFVEWLIK([γGlu-γGlu-γGlu-γGlu-C18 diacid])GGPSEGASLRHYYNWLTRQRY-NH2 [Compound 276, Y-Aib-E-G-T-F-T-S-D-Y-S-I-Aib-L-E-K-Q-A-Q-Aib-E-F-V-E-W-L-I-K(1,3)-GGPSEGASLRHYYNWLTRQRY-NH2.C18DA-gGlu-gGlu-gGlu-gGlu(1,2)]”, for which the EC50 turned out to be 0.35 nM on hGLP1R (setting [3]); 16.7 nM on hGLP1R (100% human plasma, read-out: hGLP1R 100% hP); 0.37 nM on hGIPR (setting [4]); 1.82 nM at hGIPR (setting [5]); 20.7 nM on hNPY2R. Further, the “Acute Food Intake 24 h 30 nmol/kg [% CTL]” value in data set [2] was found to be 60 % CTL.
`CC[C@H](C)[C@H](NC(=O)[C@H](CC(C)C)NC(=O)[C@H](Cc1c[nH]c2ccccc12)NC(=O)[C@H](CCC(=O)O)NC(=O)[C@@H](NC(=O)[C@H](Cc1ccccc1)NC(=O)[C@H](C)NC(=O)C(C)(C)NC(=O)[C@H](CCC(N)=O)NC(=O)[C@H](C)NC(=O)[C@H](CCC(N)=O)NC(=O)[C@H](CCCCN)NC(=O)[C@H](CCC(=O)O)NC(=O)[C@H](CC(C)C)NC(=O)C(C)(C)NC(=O)[C@@H](NC(=O)[C@H](CO)NC(=O)[C@H](Cc1ccc(O)cc1)NC(=O)[C@H](CC(=O)O)NC(=O)[C@H](CO)NC(=O)[C@@H](NC(=O)[C@H](Cc1ccccc1)NC(=O)[C@@H](NC(=O)CNC(=O)[C@H](CCC(=O)O)NC(=O)C(C)(C)NC(=O)[C@@H](N)Cc1ccc(O)cc1)[C@@H](C)O)[C@@H](C)O)[C@@H](C)CC)C(C)C)C(=O)N[C@@H](CCCCNC(=O)[C@@H](N)CCCCNC(=O)[C@H](CCC(=O)O)NC(=O)CC[C@H](NC(=O)CC[C@H](NC(=O)CC[C@H](NC(=O)CC[C@H](NC(=O)CC[C@H](NC(=O)CCCCCCCCCCCCCCCCCCC(=O)O)C(=O)O)C(=O)O)C(=O)O)C(=O)O)C(=O)O)C(=O)NCC(=O)NCC(=O)N1CCC[C@H]1C(=O)N[C@@H](CO)C(=O)N[C@@H](CCC(=O)O)C(=O)NCC(=O)N[C@@H](C)C(=O)N[C@@H](CO)C(=O)N[C@@H](CC(C)C)C(=O)N[C@@H](CCCNC(=N)N)C(=O)N[C@@H](Cc1c[nH]cn1)C(=O)N[C@@H](Cc1ccc(O)cc1)C(=O)N[C@@H](Cc1ccc(O)cc1)C(=O)N[C@@H](CC(N)=O)C(=O)N[C@@H](Cc1c[nH]c2ccccc12)C(=O)N[C@@H](CC(C)C)C(=O)N[C@H](C(=O)N[C@@H](CCCNC(=N)N)C(=O)N[C@@H](CCC(N)=O)C(=O)N[C@@H](CCCNC(=N)N)C(=O)N[C@@H](Cc1ccc(O)cc1)C(N)=O)[C@@H](C)O` [Compound 286, Y-Aib-E-G-T-F-T-S-D-Y-S-I-Aib-L-E-K-Q-A-Q-Aib-A-F-V-E-W-L-I-K(1,3)-GGPSEGASLRHYYNWLTRQRY-NH2.C20DA-gGlu-gGlu-gGlu-gGlu-gGlu-Glu-eLys(1,2)] came in with an MRT in data set [1] (in vivo) of 11 h. For the same compound, the “Acute Food Intake 24 h 30 nmol/kg [% CTL]” value in data set [2] stood at 58 % CTL.
As for `CC[C@H](C)[C@H](NC(=O)[C@H](CC(C)C)NC(=O)[C@H](Cc1c[nH]c2ccccc12)NC(=O)[C@H](CCC(=O)O)NC(=O)[C@@H](NC(=O)[C@H](Cc1ccccc1)NC(=O)[C@H](CCC(=O)O)NC(=O)C(C)(C)NC(=O)[C@H](CCC(N)=O)NC(=O)[C@H](C)NC(=O)[C@H](CCC(N)=O)NC(=O)[C@H](CCCCN)NC(=O)[C@H](CCC(=O)O)NC(=O)[C@H](CC(C)C)NC(=O)C(C)(C)NC(=O)[C@@H](NC(=O)[C@H](CO)NC(=O)[C@H](Cc1ccc(O)cc1)NC(=O)[C@H](CC(=O)O)NC(=O)[C@H](CO)NC(=O)[C@@H](NC(=O)[C@H](Cc1ccccc1)NC(=O)[C@@H](NC(=O)CNC(=O)[C@H](CCC(=O)O)NC(=O)C(C)(C)NC(=O)[C@@H](N)Cc1ccc(O)cc1)[C@@H](C)O)[C@@H](C)O)[C@@H](C)CC)C(C)C)C(=O)N[C@@H](CCCCNC(=O)[C@@H](N)CCCCNC(=O)CC[C@H](NC(=O)CC[C@H](NC(=O)CC[C@H](NC(=O)CC[C@H](NC(=O)CC[C@H](NC(=O)CC[C@H](NC(=O)CCCCCCCCCCCCCCCCC(=O)O)C(=O)O)C(=O)O)C(=O)O)C(=O)O)C(=O)O)C(=O)O)C(=O)NCC(=O)NCC(=O)N1CCC[C@H]1C(=O)N[C@@H](CO)C(=O)N[C@@H](CCC(=O)O)C(=O)NCC(=O)N[C@@H](C)C(=O)N[C@@H](CO)C(=O)N[C@@H](CC(C)C)C(=O)N[C@@H](CCCNC(=N)N)C(=O)N[C@@H](Cc1c[nH]cn1)C(=O)N[C@@H](Cc1ccc(O)cc1)C(=O)N[C@@H](Cc1ccc(O)cc1)C(=O)N[C@@H](CC(N)=O)C(=O)N[C@@H](Cc1c[nH]c2ccccc12)C(=O)N[C@@H](CC(C)C)C(=O)N[C@H](C(=O)N[C@@H](CCCNC(=N)N)C(=O)N[C@@H](CCC(N)=O)C(=O)N[C@@H](CCCNC(=N)N)C(=O)N[C@@H](Cc1ccc(O)cc1)C(N)=O)[C@@H](C)O` [Compound 255, Y-Aib-E-G-T-F-T-S-D-Y-S-I-Aib-L-E-K-Q-A-Q-Aib-E-F-V-E-W-L-I-K(1,3)-GGPSEGASLRHYYNWLTRQRY-NH2.C18DA-gGlu-gGlu-gGlu-gGlu-gGlu-gGlu-eLys(1,2)], the EC50 on hGLP1R (setting [3]) is 0.34 nM; on hGIPR (setting [4]), 0.46 nM; at hGIPR (setting [5]), 1.23 nM; at hNPY2R it was 17.3 nM. Besides, the mean residence time MRT in data set [1] (plasma) turned out to be 11 h.
For “Y[Aib]EGTFTSDYSI[Aib]LEKQAQ[Aib]AFVEWLIK([εLys-γGlu-γGlu-γGlu-γGlu-γGlu-γGlu-γGlu-C20 diacid])GGPSSGASLRHYYNWLTRQRY-NH2 [Compound 225, Y-Aib-E-G-T-F-T-S-D-Y-S-I-Aib-L-E-K-Q-A-Q-Aib-A-F-V-E-W-L-I-K(1,3)-GGPSSGASLRHYYNWLTRQRY-NH2.C20DA-gGlu-gGlu-gGlu-gGlu-gGlu-gGlu-gGlu-eLys(1,2)]”, in that order: 0.12 nM, 0.28 nM, 1.23 nM, 14.9 nM and 13 h.
